According to ChEMBL document CHEMBL6114979, “Discovery of 3-indolylbenzoquinone derivatives with therapeutic potential for breast cancer” (Bioorg Med Chem, 2025):
In brackets after ≈: the same amount, converted by molar mass. Activity calls are given as the source filed them. The calls are words filed in the database; no cut-off is given here.

Key:
NIH3T3 = test: Cytotoxicity against mouse 3T3 cells; format: toxicity, cell-based
MDA-MB-231 [1] = test: Induction of apoptosis in human MDA-MB-231 cells assessed as increase in red fluorescence at 1 uM incubated for 24 hrs in presence of doxorubicin by fluorescence microscopic analysis; format: functional, cell-based
4T1 [2] = test: Antitumor activity against mouse 4T1 cells implanted in Balb/c mouse assessed as appearance of larger intercellular gaps at 80 mg/kg, IT administered once every 4 days for 14 days in presence of olive oil by TEM analysis; format: functional, organism-based; conditions: time 14.0 day
4T1 [3] = test: Antitumor activity against mouse 4T1 cells implanted in Balb/c mouse assessed as appearance of mitochondrial swelling at 80 mg/kg, IT administered once every 4 days for 14 days in presence of olive oil by TEM analysis; format: functional, organism-based; conditions: time 14.0 day
[4] = Hepatotoxicity in Kunming mouse assessed as change in AST level administered intraperitoneally for 14 days (reference value: 153.25 +/- 15.26 U); format: toxicity; conditions: in vivo, ip, 336 h, time 14 day
[5] = Solubility of compound in water; format: physicochemical
MDA-MB-231 [6] = test: Induction of apoptosis in human MDA-MB-231 cells assessed as early apoptotic cells at 1 uM incubated for 24 hrs by Annexin-V/PI staining based flow cytometric analysis (reference value: 2.69%); format: functional
MDA-MB-231 [7] = test: Induction of cell cycle arrest in human MDA-MB-231 cells assessed as accumulation of cells at G0/G1 phase at 1 uM incubated for 24 hrs by PI staining based flow cytometric analysis (reference value: 57.31%); format: functional
[8] = Cardiotoxicity in Kunming mouse assessed as change in CK level administered intraperitoneally for 14 days (reference value: 851.75 +/- 87.81 U); format: toxicity; conditions: in vivo, ip, 336 h, time 14 day
4T1 [9] = test: Antitumor activity against mouse 4T1 cells implanted in Balb/c mouse assessed as appearance of mitochondrial swelling at 200 mg/kg, TOP administration once every 2 days for 14 days; format: functional, organism-based; conditions: time 14.0 day
4T1 [10] = test: Antitumor activity against mouse 4T1 cells implanted in Balb/c mouse assessed as damage in endoplasmic reticulum at 25 to 35 mg/kg, ip administered once every 2 days for 14 days by TEM analysis; format: functional, organism-based; conditions: dose 25-35 mg/kg, time 14.0 day
MDA-MB-231 [11] = test: Induction of apoptosis in human MDA-MB-231 cells assessed as necrotic cells at 1 uM incubated for 24 hrs by Annexin-V/PI staining based flow cytometric analysis (reference value: 0.71%); format: functional
[12] = Toxicity in Kunming mouse assessed as appearance of mononuclear macrophages in alveolar lumen at 240 to 469 mg/kg, ip administered for 14 days by H and E staining based analysis; format: organism-based; conditions: in vivo, 336 h, dose 240-469 mg/kg, time 14 day
[13] = Toxicity in Kunming mouse assessed as lethal dose administered intraperitoneally for 14 days; conditions: in vivo, route ip, time 14 day
[14] = Toxicity in female Balb/c mouse implanted with mouse 4T1 cells assessed as mortality at 80 mg/kg, IT administered once every 4 days in presence of olive oil; format: organism-based; conditions: in vivo, other, 96 h
HUVEC = test: Cytotoxicity against human HUVEC cells; format: toxicity, cell-based
MDA-MB-231 [15] = test: Induction of apoptosis in human MDA-MB-231 cells assessed as viable cells at 1 uM incubated for 24 hrs by Annexin-V/PI staining based flow cytometric analysis (reference value: 93.37%); format: functional; conditions: read-out: Activity
[16] = Cardiotoxicity in Kunming mouse assessed as change in LDH level administered intraperitoneally for 14 days (reference value: 1253 +/- 67.28 U); format: toxicity; conditions: in vivo, ip, 336 h, time 14 day
[17] = Toxicity in female Balb/c mouse implanted with mouse 4T1 cells assessed as change in body weight at 25 to 35 mg/kg, ip administered once every 2 days; format: organism-based; conditions: in vivo, 48 h, dose 25-35 mg/kg, time 2 day
4T1 [18] = test: Antitumor activity against mouse 4T1 cells implanted in Balb/c mouse assessed as reduction in tumor size at 25 to 35 mg/kg, ip administered once every 2 days 14 days; format: functional, organism-based; conditions: dose 25-35 mg/kg, time 14.0 day
[19] = Toxicity in female Balb/c mouse implanted with mouse 4T1 cells assessed as abnormalities in kidney at 35 mg/kg, ip administered once every 2 days for 14 days; format: organism-based; conditions: in vivo, 336 h, time 14 day
[20] = Toxicity in Kunming mouse assessed as change in spleen lesions at 240 to 469 mg/kg, ip administered for 14 days by H and E staining based analysis; format: organism-based; conditions: in vivo, 336 h, dose 240-469 mg/kg, time 14 day
MDA-MB-231 [21] = test: Induction of cell cycle arrest in human MDA-MB-231 cells assessed as accumulation of cells at G2/M phase at 1 uM incubated for 24 hrs by PI staining based flow cytometric analysis (reference value: 33.98%); format: functional
MDA-MB-231 [22] = test: Antiproliferative activity against human MDA-MB-231 cells assessed as inhibition of cell proliferation incubated for 48 hrs by CCK-8 assay; format: functional, cell-based; conditions: MDA-MB-231, 48 h
4T1 [23] = test: Antitumor activity against mouse 4T1 cells implanted in Balb/c mouse assessed as appearance of vacuolation at 200 mg/kg, TOP administration once every 2 days for 14 days; format: functional, organism-based; conditions: time 14.0 day
HepG2 = test: Antiproliferative activity against human HepG2 cells assessed as inhibition of cell proliferation incubated for 48 hrs by CCK-8 assay; format: functional, cell-based; conditions: HepG2, 48 h
[24] = Toxicity in female Balb/c mouse implanted with mouse 4T1 cells assessed as mortality at 25 to 35 mg/kg, ip administered once every 2 days; format: organism-based; conditions: in vivo, 48 h, dose 25-35 mg/kg, time 2 day
4T1 [25] = test: Antitumor activity against mouse 4T1 cells implanted in Balb/c mouse assessed as appearance of vacuolation at 25 to 35 mg/kg, ip administered once every 2 days for 14 days by TEM analysis; format: functional, organism-based; conditions: dose 25-35 mg/kg, time 14.0 day
4T1 [26] = test: Antitumor activity against mouse 4T1 cells implanted in Balb/c mouse assessed as lighter tumor at 200 mg/kg, TOP administration once every 2 days for 14 days; format: functional, organism-based; conditions: time 14.0 day
MDA-MB-231 [27] = test: Induction of apoptosis in human MDA-MB-231 cells assessed as increase in green fluorescence at 1 uM incubated for 24 hrs in presence of doxorubicin by fluorescence microscopic analysis; format: functional, cell-based
[28] = Toxicity in female Balb/c mouse implanted with mouse 4T1 cells assessed as abnormal behaviour at 80 mg/kg, IT administered once every 4 days in presence of olive oil; format: organism-based; conditions: in vivo, other, 96 h
4T1 [29] = test: Antitumor activity against mouse 4T1 cells implanted in Balb/c mouse assessed as damage in endoplasmic reticulum at 80 mg/kg, IT administered once every 4 days for 14 days in presence of olive oil by TEM analysis; format: functional, organism-based; conditions: time 14.0 day
4T1 [30] = test: Antitumor activity against mouse 4T1 cells implanted in Balb/c mouse assessed as appearance of extensive tumor cell necrosis at 25 mg/kg, ip administered once every 2 days for 14 days; format: functional, organism-based; conditions: time 14.0 day
[31] = Toxicity in Kunming mouse assessed as change in lung morphology at 240 to 469 mg/kg, ip administered for 14 days by H and E staining based analysis; format: organism-based; conditions: in vivo, 336 h, dose 240-469 mg/kg, time 14 day
[32] = Nephrotoxicity in Kunming mouse assessed as change in BUN level administered intraperitoneally for 14 days (reference value: 8.65 +/- 2.66 U); format: toxicity; conditions: in vivo, ip, 336 h, time 14 day
A549 = test: Antiproliferative activity against human A549 cells assessed as inhibition of cell proliferation incubated for 48 hrs by CCK-8 assay; format: functional, cell-based; conditions: A549, 48 h
[33] = Toxicity in female Balb/c mouse implanted with mouse 4T1 cells assessed as tumor metastasis to lungs at 25 mg/kg, ip administered once every 2 days for 14 days; format: organism-based; conditions: in vivo, 336 h, time 14 day

Question: What does the source list for `Cc1[nH]c2ccccc2c1C1=C(F)C(=O)C(F)=C(N2CCOCC2)C1=O`?
Answer: Activity (NIH3T3): Toxic; Activity (MDA-MB-231 [1]): Active; Compound Showed More Effect Than Mitoxantrone Treated Group; Activity (4T1 [2]): Active; Activity (4T1 [3]): Active; Activity [4]: 106 U/L; solubility [5]: 28 µg/mL (≈ 78.1 µM); Activity (MDA-MB-231 [6]): 24.53%; Activity (MDA-MB-231 [7]): 32.15%; Activity [8]: 812 U/L; Activity (4T1 [9]): Active; Activity (4T1 [10]): Active; Activity (MDA-MB-231 [11]): 3.93%; Activity [12]: Toxic; LD50 at 336 h [13]: 385 mg/kg; Activity [14]: Non-toxic; Activity (HUVEC): Toxic; viability at 1 µM (MDA-MB-231 [15]): 45.1%; Activity [16]: 1060 U/L; Activity [17]: Non-toxic; Activity (4T1 [18]): Active; Activity [19]: Non-toxic; Activity [20]: Non-toxic; Activity (MDA-MB-231 [21]): 63.64%; IC50 (MDA-MB-231 [22]): 3.2 µM; Activity (4T1 [23]): Active; IC50 (HepG2): 3.94 µM; Activity [24]: Non-toxic; Activity (4T1 [25]): Active; Activity (4T1 [26]): Active; Activity (MDA-MB-231 [27]): Active; Compound Showed More Effect Than Mitoxantrone Treated Group; Activity [28]: Non-toxic; Activity (4T1 [29]): Active; Activity (4T1 [30]): Active; Activity [31]: Non-toxic; Activity [32]: 6.26 U; IC50 (A549): 5.21 µM; Activity [33]: Toxic
